Each structure is given as a SMILES string.

The target of experiment [1] is T1, BIR3 domain of XIAP (Homo sapiens, UniProt P98170).
T1 construct: BIR3 domain, corresponding to amino acids 241-356 of XIAP
Nature of the experiment: TR-FRET assay for BIR3 (inhibition of binding of XIAP BIR3 domain to SMAC-derived Peptide A). The following applies: 6x Histidine-tagged BIR3 domain (amino acids 241-356 of XIAP) 10 nM, Peptide A 20 nM. Summed up: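 His6-tagged XIAP BIR3 (aa 241-356, 10 nM) was mixed with 20 nM biotinylated SMAC-derived peptide in 50 mM Tris-Cl pH 7.5, 100 mM NaCl, 1 mM DTT, 0.1 mg/mL BSA and incubated 45 min at 37 °C. Eu-streptavidin (1.5 nM) and APC anti-His (15 nM) were added, with TR-FRET read 1 h later at RT. IC50 came from % inhibition over 10 serial concentrations.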
(Time-resolved FRET reads energy transfer from a long-lived donor to a nearby acceptor.)

The target in experiment [2] is T2, BIR2 domain of XIAP (Homo sapiens, UniProt P98170, C202A/C213G).
T2 construct: 6× Histidine-tagged BIR2 domain, corresponding to amino acids 124-240 of XIAP
Nature of the experiment: TR-FRET assay for BIR2 (inhibition of binding of XIAP BIR2 domain to SMAC-derived Peptide A). To be noted: 6x Histidine-tagged BIR2 domain (amino acids 124-240 of XIAP) 10 nM, Peptide A 20 nM. Put shortly:
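Inhibition of binding of the XIAP BIR2 domain (C202A/C213G) to biotinylated SMAC-derived Peptide A was measured. TR-FRET signal was read after 1 h at room temperature.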

T1 sequence (P98170 with tags, fused parts or gaps): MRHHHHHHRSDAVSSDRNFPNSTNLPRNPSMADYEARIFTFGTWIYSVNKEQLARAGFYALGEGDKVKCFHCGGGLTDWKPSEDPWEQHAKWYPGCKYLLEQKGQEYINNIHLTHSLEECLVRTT
T2 sequence (P98170 with tags, fused parts or gaps C202A/C213G): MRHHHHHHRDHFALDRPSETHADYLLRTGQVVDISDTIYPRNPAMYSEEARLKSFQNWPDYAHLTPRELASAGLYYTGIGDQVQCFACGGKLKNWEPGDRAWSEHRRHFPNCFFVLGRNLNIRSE

By IC50 is commonly meant the concentration needed to halve the response being measured. A high value points to a need for much substance. On to `CN[C@@H](C)C(=O)N[C@H](C(=O)N1c2ncccc2C[C@H]1C(=O)Nc1ccc(F)cc1F)C(C)C` [Example 65, (S)-1-[(S)-3-Methyl-2-((S)-2-methylamino-propionylamino)-butyryl]-2,3-dihydro-1H-pyrrolo[2,3-b]pyridine-2-carboxylic acid (2,4-difluoro-phenyl)-amide], for which the IC50 was greater than 54800 nM in experiment [1] and 35.1 nM in experiment [2].

As for `CN[C@@H](C)C(=O)N[C@H](C(=O)N1c2ncccc2C[C@H]1C(=O)Nc1nc(C)cs1)C(C)C` [Example 66, (S)-1-[(S)-3-Methyl-2-((S)-2-methylamino-propionylamino)-butyryl]-2,3-dihydro-1H-pyrrolo[2,3-b]pyridine-2-carboxylic acid (4-methyl-thiazol-2-yl)-amide], the IC50 in experiment [1] is greater than 54800 nM; in experiment [2] it was 496 nM.

Turning to `CN[C@@H](C)C(=O)N[C@H](C(=O)N1c2ncccc2C[C@H]1C(=O)Nc1ncc(C)s1)C(C)C` [Example 67, (S)-1-[(S)-3-Methyl-2-((S)-2-methylamino-propionylamino)-butyryl]-2,3-dihydro-1H-pyrrolo[2,3-b]pyridine-2-carboxylic acid (5-methyl-thiazol-2-yl)-amide], the half-inhibitory concentration (IC50) in experiment [1] is greater than 54800 nM; in experiment [2] it was 92.6 nM.

Turning to `CN[C@@H](C)C(=O)N[C@H](C(=O)N1c2ncccc2C[C@H]1C(=O)Nc1ccncc1F)C(C)C` [Example 69, (S)-1-[(S)-3-Methyl-2-((S)-2-methylamino-propionylamino)-butyryl]-2,3-dihydro-1H-pyrrolo[2,3-b]pyridine-2-carboxylic acid (3-fluoro-pyridin-4-yl)-amide], the IC50 in experiment [1] was greater than 54800 nM; in experiment [2], 105 nM.

For the molecule `CN[C@@H](C)C(=O)N[C@H](C(=O)N1c2ncccc2C[C@H]1C(=O)Nc1c(F)cccc1Cl)C(C)C` [Example 70, (S)-1-[(S)-3-Methyl-2-((S)-2-methylamino-propionylamino)-butyryl]-2,3-dihydro-1H-pyrrolo[2,3-b]pyridine-2-carboxylic acid (2-chloro-6-fluoro-phenyl)-amide], the IC50 was greater than 54800 nM in experiment [1] and 21.5 nM in experiment [2].

For the molecule `CN[C@@H](C)C(=O)N[C@H](C(=O)N1c2ncccc2C[C@H]1C(=O)Nc1c(C)cccc1Cl)C(C)C` [Example 71, (S)-1-[(S)-3-Methyl-2-((S)-2-methylamino-propionylamino)-butyryl]-2,3-dihydro-1H-pyrrolo[2,3-b]pyridine-2-carboxylic acid (2-chloro-6-methyl-phenyl)-amide], the IC50 is greater than 54800 nM in experiment [1] and 19.2 nM in experiment [2].

`CN[C@@H](C)C(=O)N[C@H](C(=O)N1c2ncccc2C[C@H]1C(=O)Nc1c(Cl)cc(Cl)cc1Cl)C(C)C` [Example 72, (S)-1-[(S)-3-Methyl-2-((S)-2-methylamino-propionylamino)-butyryl]-2,3-dihydro-1H-pyrrolo[2,3-b]pyridine-2-carboxylic acid (2,4,6-trichloro-phenyl)-amide]: the values for the IC50 in experiment [1] and in experiment [2] were greater than 54800 nM and 13.7 nM, respectively.

For `CN[C@@H](C)C(=O)N[C@H](C(=O)N1c2ncccc2C[C@H]1C(=O)Nc1c(F)cccc1C(F)(F)F)C(C)C` [Example 73, (S)—N-(2-fluoro-6-(trifluoromethyl)phenyl)-1-((S)-3-methyl-2-((S)-2-(methylamino)propanamido)butanoyl)-2,3-dihydro-1H-pyrrolo[2,3-b]pyridine-2-carboxamide], the values for the concentration for half-maximal inhibition (IC50) in experiment [1] and in experiment [2] were greater than 54800 nM and 69.1 nM, respectively.

With `CN[C@@H](C)C(=O)N[C@H](C(=O)N1c2ncccc2C[C@H]1C(=O)Nc1c(Cl)cccc1Cl)C(C)C` [Example 74, (S)-1-[(S)-3-Methyl-2-((S)-2-methylamino-propionylamino)-butyryl]-2,3-dihydro-1H-pyrrolo[2,3-b]pyridine-2-carboxylic acid (2,6-dichloro-phenyl)-amide], the half-inhibitory concentration (IC50) in experiment [1] was greater than 54800 nM; in experiment [2], 16.6 nM.

Regarding `CN[C@@H](C)C(=O)N[C@H](C(=O)N1c2ncccc2C[C@H]1C(=O)Nc1c(Cl)cccc1C(F)(F)F)C(C)C` [Example 75, (S)-1-[(S)-3-Methyl-2-((S)-2-methylamino-propionylamino)-butyryl]-2,3-dihydro-1H-pyrrolo[2,3-b]pyridine-2-carboxylic acid (2-chloro-6-trifluoromethyl-phenyl)-amide], the concentration for half-maximal inhibition (IC50) was greater than 54800 nM in experiment [1] and 57.5 nM in experiment [2].

For `CCN[C@@H](C)C(=O)N[C@H](C(=O)N1c2ncccc2C[C@H]1C(=O)Nc1ccccc1)C1CCCCC1` [Example 76, (S)-1-[(S)-2-Cyclohexyl-2-((S)-2-ethylamino-propionylamino)-acetyl]-2,3-dihydro-1H-pyrrolo[2,3-b]pyridine-2-carboxylic acid phenylamide], the values for the IC50 in experiment [1] and in experiment [2] were greater than 54800 nM and 353 nM, respectively.

As for `CCN[C@@H](C)C(=O)N[C@H](C(=O)N1c2ncccc2C[C@H]1C(=O)Nc1c(F)cccc1F)C(C)C` [Example 77, (S)-1-[(S)-2-((S)-2-Ethylamino-propionylamino)-3-methyl-butyryl]-2,3-dihydro-1H-pyrrolo[2,3-b]pyridine-2-carboxylic acid (2,6-difluoro-phenyl)-amide], the half-inhibitory concentration (IC50) is greater than 54800 nM in experiment [1] and 46.2 nM in experiment [2].

For `CC[C@H](NC)C(=O)N[C@H](C(=O)N1c2ncccc2C[C@H]1C(=O)Nc1c(F)cccc1F)C(C)C` [Example 78, (S)-1-[(S)-3-Methyl-2-((S)-2-methylamino-butyrylamino)-butyryl]-2,3-dihydro-1H-pyrrolo[2,3-b]pyridine-2-carboxylic acid (2,6-difluoro-phenyl)-amide], the IC50 in experiment [1] is greater than 54800 nM; in experiment [2] it was 14.2 nM.

Regarding `CN[C@@H](C)C(=O)N[C@H](C(=O)N1c2ncccc2C[C@@H]1C(=O)Nc1ccccc1)C1CCCCC1` [Example 79, (R)-1-[(S)-2-Cyclohexyl-2-((S)-2-methylamino-propionylamino)-acetyl]-2,3-dihydro-1H-pyrrolo[2,3-b]pyridine-2-carboxylic acid phenylamide], the IC50 in experiment [1] and in experiment [2] was greater than 54800 nM each time.

Consider `CN[C@@H](C)C(=O)N[C@H](C(=O)N1c2ncccc2C[C@H]1C(=O)Nc1ccccc1)C1CCCCC1` [Example 80, (S)-1-[(S)-2-Cyclohexyl-2-((S)-2-methylamino-propionylamino)-acetyl]-2,3-dihydro-1H-pyrrolo[2,3-b]pyridine-2-carboxylic acid phenylamide], for which the IC50 in experiment [1] is greater than 54800 nM; in experiment [2], 117 nM.

Consider `CC[C@H](NC)C(=O)N[C@H](C(=O)N1c2ncccc2C[C@@H]1C(=O)Nc1ccccc1)C1CCCCC1` [Example 81, (R)-1-[(S)-2-Cyclohexyl-2-((S)-2-methylamino-butyrylamino)-acetyl]-2,3-dihydro-1H-pyrrolo[2,3-b]pyridine-2-carboxylic acid phenylamide], for which the values for the IC50 in experiment [1] and in experiment [2] were greater than 54800 nM and 10400 nM, respectively.

Consider `CC[C@H](NC)C(=O)N[C@H](C(=O)N1c2ncccc2C[C@H]1C(=O)Nc1ccccc1)C1CCCCC1` [Example 82, 1-[(S)-2-Cyclohexyl-2-((S)-2-methylamino-butyrylamino)-acetyl]-2,3-dihydro-1H-pyrrolo[2,3-b]pyridine-2-carboxylic acid phenylamide], for which the IC50 is greater than 54800 nM in experiment [1] and 105 nM in experiment [2].

Regarding `[2H]C([2H])([2H])N[C@@H](CC)C(=O)N[C@H](C(=O)N1c2ncccc2C[C@H]1C(=O)Nc1ccccc1)C1CCCCC1` [Example 83, 1-[(S)-2-Cyclohexyl-2-((S)-2-(d3-methyl)amino-butyrylamino)-acetyl]-2,3-dihydro-1H-pyrrolo[2,3-b]pyridine-2-carboxylic acid phenylamide], the IC50 in experiment [1] is greater than 54800 nM; in experiment [2] it was 52.8 nM.

Regarding `CC[C@H](NC)C(=O)N[C@H](C(=O)N1c2ncccc2C[C@H]1C(=O)Nc1ccccc1)C(C)C` [Example 85, (S)-1-[(S)-3-Methyl-2-((S)-2-methylamino-butyrylamino)-butyryl]-2,3-dihydro-1H-pyrrolo[2,3-b]pyridine-2-carboxylic acid phenylamide], the results for the IC50 in experiment [1] and in experiment [2] were greater than 54800 nM and 69.1 nM, respectively.

With `[2H]C([2H])([2H])N[C@@H](CC)C(=O)N[C@H](C(=O)N1c2ncccc2C[C@H]1C(=O)Nc1ccccc1)C(C)C` [Example 86, (S)-1-[(S)-3-Methyl-2-((S)-2-(d3-methyl)amino-butyrylamino)-butyryl]-2,3-dihydro-1H-pyrrolo[2,3-b]pyridine-2-carboxylic acid phenylamide], the figures for the IC50 in experiment [1] and in experiment [2] were greater than 54800 nM and 65.6 nM, respectively.

Turning to `CCN[C@@H](C)C(=O)N[C@H](C(=O)N1c2ncccc2C[C@H]1C(=O)Nc1ccccc1)C(C)C` [Example 87, (S)-1-[(S)-2-((S)-2-Ethylamino-propionylamino)-3-methyl-butyryl]-2,3-dihydro-1H-pyrrolo[2,3-b]pyridine-2-carboxylic acid phenylamide], the concentration for half-maximal inhibition (IC50) in experiment [1] is greater than 54800 nM; in experiment [2] it was 234 nM.

For the molecule `CCN[C@@H](CC)C(=O)N[C@H](C(=O)N1c2ncccc2C[C@H]1C(=O)Nc1ccccc1)C(C)C` [Example 88, (S)-1-[(S)-2-((S)-2-Ethylamino-butyrylamino)-3-methyl-butyryl]-2,3-dihydro-1H-pyrrolo[2,3-b]pyridine-2-carboxylic acid phenylamide], the IC50 in experiment [1] is greater than 54800 nM; in experiment [2], 211 nM.

(Values after patent US9309248B2, “Azaindolines” (Hoffmann-La Roche Inc., priority 2012, dated 2016).)
